From ChEMBL document CHEMBL3044579, “Modified benzoxazinones in the system Oryza sativa-Echinochloa crus-galli: an approach to the development of biorational herbicide models” (J Agric Food Chem, 2008) come the findings set out here.

Data set [1] concerns Oryza sativa. Kind of data set: Phytotoxic activity against Oryza sativa (rice) seeds assessed as inhibition of root growth at 25 degC measured after 7 days by crop selectivity assay. It is filed as organism-based. The note with it: L., 168 h.
Data set [2] deals with Echinochloa crus-galli. Kind of data set: Herbicidal activity against Echinochloa crus-galli (barnyard grass) seeds assessed as inhibition of root growth at 25 degC measured after 5 days. It is filed as functional, organism-based. Particulars: 120 h.
Data set [3] can be described thus: Selectivity index, ratio of IC50 for Oryza sativa L. seeds to IC50 for Echinochloa crus-galli L. seeds.
A short description of data set [4]: Phytotoxic activity against Oryza sativa (rice) seeds assessed as inhibition of root growth at 48 uM at 25 degC measured after 7 days by crop selectivity assay. The class given is organism-based, L. Particulars: read-out: GI.
Data set [5] has as its system Echinochloa crus-galli. The data set can be described thus: Herbicidal activity against Echinochloa crus-galli (barnyard grass) seeds assessed as inhibition of root growth at 48 uM at 25 degC measured after 5 days. The class given is functional. The note with it: 120 h, read-out: GI.
The test system of data set [6] is Echinochloa crus-galli. The data set can be described thus: Ratio of propanil IC50 to compound IC50 for Echinochloa crus-galli (barnyard grass) seeds measured after 5 days. The class given is functional.

Regarding `CCCCCCC1Oc2ccccc2N(O)C1=O` [2-Hexyl-D-DIBOA], the IC50 was 9880 µM in data set [1] and 5590 µM in data set [2]. For the same molecule, in data set [3], the Ratio IC50 was found to be 1.77.

As for `CCCC(=O)ON1C(=O)COc2ccccc21` [BU-D-DIBOA], the IC50 in data set [2] came to 2440 µM.

In the case of `CCCCCCC(=O)ON1C(=O)COc2ccccc21` [HEPT-D-DIBOA], the IC50 in data set [2] is 537 µM. As to `CCCCCCCCC(=O)ON1C(=O)COc2ccccc21` [NON-D-DIBOA], the IC50 in data set [2] was 1440 µM.

Consider `CCCCCCCCCCC(=O)ON1C(=O)COc2ccccc21` [UNDEC-D-DIBOA], for which the IC50 in data set [2] was 422 µM. On the same count and under the same terms, to `CCCCCCCCCCCCCC(=O)ON1C(=O)COc2ccccc21` [MIR-D-DIBOA] belongs 206 µM; to `CCCCCCCCCCCC(=O)ON1C(=O)COc2ccccc21` [LAU-DIBOA], 170 µM. Same read-out and setting: to `CC(=O)ON1C(=O)COc2ccccc21` [ABOA] belongs 7180 µM. Same read-out and setting: for `CCCCCCCCCCCCC(=O)ON1C(=O)COc2ccccc21` [TRIDEC-D-DIBOA] the value was 359 µM. `CCC(=O)ON1C(=O)COc2ccccc21` [PR-D-DIBOA]: the concentration for half-maximal inhibition (IC50) in data set [2] stood at 1090 µM. Take `CCC(=O)Nc1ccc(Cl)c(Cl)c1` [PROPANIL]: in data set [2], the IC50 turned out to be 114 µM. Take `CCCC1Oc2ccccc2N(O)C1=O` [2-Propyl-D-DIBOA]: the IC50 in data set [1] came out at 331 µM; in data set [2] it was 162 µM. Further, the Ratio IC50 in data set [3] was determined as 2.05.

On to `CCCCCC(=O)ON1C(=O)COc2ccccc21` [HEX-D-DIBOA], for which the IC50 in data set [2] was 1200 µM.

As to `CCOC(=O)C1(C)Oc2ccccc2N(O)C1=O` [2-Ethoxycarbonyl-2-methyl-D-DIBOA], the IC50 in data set [1] amounted to 2890 µM; in data set [2], 654 µM. Also, the Ratio IC50 in data set [3] amounted to 4.42. In the case of `CC1Oc2ccccc2N(O)C1=O` [2-Methyl-D-DIBOA], the results for the 50% inhibitory concentration (IC50) in data set [1] and in data set [2] were 483 µM and 298 µM, respectively. In addition, the Ratio IC50 in data set [3] was determined as 1.62. For `O=C1COc2ccccc2N1O`, the IC50 in data set [1] amounted to 149 µM; in data set [2] it was 234 µM. Also, in data set [3], the Ratio IC50 was determined as 0.6. Take `CCCCCCCCCC(=O)ON1C(=O)COc2ccccc21` [DEC-D-DIBOA]: the IC50 in data set [2] came out at 107 µM.

As to `CCCCCCCC(=O)ON1C(=O)COc2ccccc21` [OCT-D-DIBOA], in data set [2], the IC50 stood at 448 µM. Take `CCCCC1Oc2ccccc2N(O)C1=O` [2-Butyl-D-DIBOA]: the IC50 in data set [1] was 417 µM; in data set [2] it was 189 µM. Besides, in data set [3], the Ratio IC50 amounted to 2.21. Regarding `CCCCC(=O)ON1C(=O)COc2ccccc21` [VAL-D-DIBOA], the 50% inhibitory concentration (IC50) in data set [2] stood at 1150 µM. For the molecule `CCOC(=O)C1Oc2ccccc2N(O)C1=O` [2-Ethoxycarbonyl-D-DIBOA], the IC50 in data set [1] turned out to be 1460 µM; in data set [2], 290 µM. Further, the Ratio IC50 in data set [3] stood at 5.03. For the molecule `CCC1Oc2ccccc2N(O)C1=O` [2-Ethyl-D-DIBOA], the half-inhibitory concentration (IC50) was found to be 326 µM in data set [1] and 39 µM in data set [2]. In addition, the inhibition at 168 h, 48 µM in data set [4] worked out at 20%. Further, the results for the Ratio IC50 in data set [3] and in data set [6] were 8.35 and 3, respectively. In data set [5], the inhibition of growth at 48 µM worked out at 50%. For `O=C1C(c2ccccc2)Oc2ccccc2N1O` [2-Phenyl-D-DIBOA], the IC50 in data set [1] was determined as 603 µM; in data set [2] it was 204 µM. In data set [3], the Ratio IC50 turned out to be 2.96.

What is called IC50 is the midpoint of a concentration-inhibition curve.
